Series [1] deals with rabbits with intact skin. To be noted: in vivo.
Description: (§1) The irritation results are reported as either irritating (+) or non-irritating (-), and the penetration results are reported as either good (+) or poor (-). […] Eight young adult New Zealand white rabbits were assigned to two groups. The rabbits were housed in stainless steel cages and maintained under standard laboratory conditions. Each cage was identified with a color coded label indicating the test substance, rabbit number, sex, and study number. Food and water were supplied ad libitum. On the day of dosing, the back of each rabbit was clipped free of hair. […] To prevent removal, the chambers were covered with an orthopedic stockinette and secured by a canvas coat.
For series [2] the following is noted: pH 7.4.
Description: The irritation results are reported as either irritating (+) or non-irritating (-), and the penetration results are reported as either good (+) or poor (-). […] The skin penetration assembly used was similar to that described by Franz (J. Invest. Derm., 64:190, 1975). Excised defatted human skin was stretched across a reservoir containing a phosphate buffer solution . (pH 7.4, 0.02M) in direct contact with the dermal side of the skin. The temperature of this buffer solution was maintained at 37± 0.5°C by circulating water at the appropriate temperature through a jacket which surrounds each assembly. Freshly made preparation was applied to the statum corneum surface. The buffer solution was removed in its entirety and replaced with fresh solution at various time intervals and assayed for azatadine content.
For series [3], the system named is rabbits with intact skin. Description: Screening of antihistamines for dermal irritation (24/72 hour screen, Draize grading). As to conditions: 24/72 hour dermal irritation screen in rabbits with intact skin; formulation strength as given in the label.
Description: as §1

The structures appear in SMILES notation. Counter-ions that a name gives are not always drawn. Like-named read-outs stand apart in the source and are kept apart here.

For the compound `CN1CCC(=C2c3ccccc3CCc3cccnc32)CC1` [Azatadine, 6,11-diydro-11-(1-methyl-4-piperidylidene)-5H-benzo[5,6]cyclohepta[1,2-b]pyridine], the “dermal irritation and/or sensitization” value in series [1] (rabbit) was “no dermal irritation and/or sensitization”. The “In Vitro Dermal Penetration” value in series [2] was “(+)”.

Take `Cc1ccc(/C(=C\CN2CCCC2)c2ccccn2)cc1` [Triprolidine HCl]: in series [1], the “Rabbit Dermal Irritation” value is reported as “(+)”.

Regarding `CN(C)CCOC(c1ccc(Cl)cc1)c1ccccn1` (stereo not shown) [Carbinoxamine maleate], the “Rabbit Dermal Irritation” value in series [1] is listed as “(+)”.

With `CN1CCC(=C2c3ccccc3C=Cc3ccccc32)CC1` [Cyprhoheptadine HCl], the “Rabbit Dermal Irritation” value in series [3] is “(+)”.

For the compound `CN(C)CCOC(C)(c1ccccc1)c1ccccn1` (stereo not shown) [Doxylamine succinate], the “Rabbit Dermal Irritation” value in series [1] was “(+)”.

Take `CN(C)CCC(c1ccc(Cl)cc1)c1ccccn1` (stereo not shown) [Chlorpheniramine base (patch), Chlorpheniramine]: in series [3], the “Rabbit Dermal Irritation” value is “(+)”. In series [2], the “In Vitro Dermal Penetration” value is reported as “(+)”.

Turning to `CN(C)CC[C@@H](c1ccc(Cl)cc1)c1ccccn1` [Dexchlorpheniramine base, Dexchlorpheniramine], the “Rabbit Dermal Irritation” value in series [3] was “(+)”.

Regarding `CN1CCC(OC(c2ccccc2)c2ccccc2)CC1` [Diphenylpyraline HCl], in series [1], the “Rabbit Dermal Irritation” value is reported as “(+)”.

As for `CC(CN1c2ccccc2Sc2ccccc21)N(C)C` (stereo not shown) [Promethazine HCl], the “Rabbit Dermal Irritation” value in series [1] was “(+)”.

Consider `CC(C1=C(CCN(C)C)Cc2ccccc21)c1ccccn1` (stereo not shown) [Dimethindine maleate], for which the “Rabbit Dermal Irritation” value in series [1] is reported as “(+)”.

With `CN(C)CC[C@@H](c1ccc(Br)cc1)c1ccccn1` [Dexbrompheniramine (10%), Dexbrompheniramine], the “Rabbit Dermal Irritation” value in series [1] is “(+)”.

Values taken from EP0188538B1, “TRANSDERMAL DELIVERY OF AZATADINE” (priority 1984, dated 1986).
